Experimental findings from patent US7713994B2 (Wyeth LLC, priority 2005, dated 2010) are described below.

The target in this assay is T1, cyclin D1/cdk 4 enzyme (Homo sapiens, UniProt P11802).
T1 construct: made in house; host or cells: Sf9 insect cells, recombinant baculovirus
Put plainly: CDK4 ELISA kinase assay (phospho-Rb ser 795 detection). The conditions noted are these: In Vitro Enzyme Assay, cyclin D1/cdk 4, read-out: CDK4 IC50. It is filed as biochemical. As to the method:
• 1. High-binding ELISA microtiter plates (Costar) were coated with 40 μl of the kinase substrate (GST fusion of C-terminal fragment of the retinoblastoma susceptibility gene product) diluted to 10 μg/ml in tris-buffered saline (TBS), overnight at 4° C. • 2. Non-specific binding sites were blocked for 1 hour at 4° C. with Superblock in TBS (Pierce), and the plates rinsed with water. • 3. For the screen, 1.5 μl of test compound (200 μg/ml stock in 20% DMSO/20 mM HEPES, pH 7.5) was added to each well. Final dose of the test compound in the assay was 10 ug/ml. […] The kinase reaction (30 μl) was dispensed into each well. Reactions contained 200 μM ATP, 0.5 mg/ml bovine serum albumin (BSA; Sigma), and 0.5 μl partially purified cyclin D1/cdk 4 enzyme*. The enzyme complex is expressed in insect cells (Sf9) infected with recombinant baculovirus and partially purified using ammonium sulfate fractionation. Reaction volumes were adjusted to 30 μl with kinase assay buffer (50 mM HEPES, pH 7.5, 10 mM MgCl2, 5% glycerol, 10 mM 2-mercaptoethanol). • *: For CDK2 assay, 1.0 μl cyclin E/CDK2 enzyme (diluted 1:1000 in kinase assay buffer) was used. The enzyme is isolated from insect cells (Sf9) infected with recombinant baculovirus and partially purified using ammonium sulfate fractionation. For CDK1 assay, 0.08 μl cyclin B/CDK1 enzyme [New England BioLabs; the enzyme is isolated from insect cells (Sf9) infected with recombinant baculovirus carrying human cdc 2 and human cyclin B] was used.
[…] • 5. Plates were incubated at 30° C. for 1 hour. • 6. The reaction mixture was removed by aspiration and replaced with 250 μl TBS containing 0.1% Tween-20 and 5% nonfat dry milk (blocking buffer). The plates were incubated at 4° C. for 1 hour. • 7. The blocking buffer was removed and replaced with 50 μl of the primary antibody [anti-phospho-Rb ser 795 (New England BioLabs) diluted 1:1000 in blocking buffer]. Incubation was at 4° C. for 16-20 hours. • 8. The wells were rinsed 3 times with 250 μl of TBS containing 0.1% Tween-20 followed by the addition of 50 μl of secondary antibody [anti-rabbit IgG conjugated to horseradish peroxidase (Amersham Life Science) diluted 1:1000 in blocking buffer]. • 9. After a 1 hour incubation at room temperature, the wells were rinsed 3 times with 250 μl of TBS/0.1% Tween 20. • 10. TMB (3,3′,5,5′-tetramethylbenzidine dihydrochloride) substrate solution (100 μl; Pierce) was added to each well and the color development reaction allowed to proceed 5-10 minutes at room temperature with shaking. The reaction was stopped by the addition of 2N sulfuric acid (100 μl) and the absorbance values read at 450 nm in a microplate reader (Molecular Devices). Analysis of Results: • 1. The percentage of the absorbance value in wells containing the test compound relative to control wells (no test agent) was determined. • 2. IC50 values of selected compounds were determined from inhibition curves, after subtracting background values (no substrate).
A general note: In an ELISA, binding on a coated surface is turned into a signal by an enzyme label.

T1 sequence (P11802 whole entry, species assumed): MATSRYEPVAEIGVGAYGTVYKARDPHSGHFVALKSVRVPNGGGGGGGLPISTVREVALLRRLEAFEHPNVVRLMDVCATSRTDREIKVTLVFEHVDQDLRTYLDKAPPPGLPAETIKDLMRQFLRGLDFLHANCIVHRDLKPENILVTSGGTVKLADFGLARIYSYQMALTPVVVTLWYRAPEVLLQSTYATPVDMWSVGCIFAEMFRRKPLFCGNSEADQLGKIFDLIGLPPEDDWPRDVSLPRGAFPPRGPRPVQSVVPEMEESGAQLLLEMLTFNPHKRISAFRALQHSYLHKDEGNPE
T1 sequence (P24385 whole entry partner, species assumed): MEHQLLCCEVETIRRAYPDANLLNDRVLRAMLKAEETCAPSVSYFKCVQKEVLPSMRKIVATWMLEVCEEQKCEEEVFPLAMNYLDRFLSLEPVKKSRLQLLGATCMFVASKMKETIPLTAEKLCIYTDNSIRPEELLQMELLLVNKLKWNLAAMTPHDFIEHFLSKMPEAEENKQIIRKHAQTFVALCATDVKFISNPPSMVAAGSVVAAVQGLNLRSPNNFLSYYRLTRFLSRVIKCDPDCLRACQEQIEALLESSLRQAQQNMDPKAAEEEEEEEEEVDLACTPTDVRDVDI

On to “4-({[6-(3-Cyano-phenyl)-1,3-dioxo-2,3-dihydro-1H-isoquinolin-4-ylidenemethyl]-amino}-methyl)-benzenesulfonamide [Example 756]”, for which the 50% inhibitory concentration (IC50) is 20.2 µM.

“6-[2-(4-Fluoro-phenyl)-vinyl]-4-{[4-(4-methyl-piperazin-1-yl)-phenylamino]-methylene}-4H-isoquinoline-1,3-dione [Example 731]”: the IC50 turned out to be 45.2 µM. Take `NS(=O)(=O)c1ccc(CNC=C2C(=O)NC(=O)c3ccccc32)cc1` [Example 540, 4-{[(1,3-Dioxo-2,3-dihydro-1H-isoquinolin-4-ylidenemethyl)-amino]-methyl}-benzenesulfonamide]: the concentration for half-maximal inhibition (IC50) was determined as 19.7 µM.

Regarding `O=C1NC(=O)c2ccccc2C1=CNc1ccccc1OC(F)(F)F` [Example 541, 4-[(2-Trifluoromethoxy-phenylamino)-methylene]-4H-isoquinoline-1,3-dione], the IC50 is 37.1 µM. Take `O=C1NC(=O)c2ccccc2C1=CNc1cccc(C(=O)O)c1` [Example 542, 3-[(1,3-Dioxo-2,3-dihydro-1H-isoquinolin-4-ylidenemethyl)-amino]-benzoic acid]: the half-maximal inhibitory concentration (IC50) was determined as 34.8 µM. Next, `CCN(CC)CCNC(=O)c1ccc(NC=C2C(=O)NC(=O)c3ccccc32)cc1` [Example 543, N-(2-Diethylamino-ethyl)-4-[(1,3-dioxo-2,3-dihydro-1H-isoquinolin-4-ylidenemethyl)-amino]-benzamide]: 42.7 µM; `O=C1NC(=O)c2ccccc2C1=CNCCc1ccc(O)c(O)c1` [Example 544, 4-{[2-(3,4-Dihydroxy-phenyl)-ethylamino]-methylene}-4H-isoquinoline-1,3-dione]: 16.2 µM.

Take `O=C(O)C(=O)Nc1ccc(NC=C2C(=O)NC(=O)c3ccccc32)cc1` [Example 546, N-{4-[(1,3-Dioxo-2,3-dihydro-1H-isoquinolin-4-ylidenemethyl)-amino]-phenyl}-oxalamic acid]: the concentration for half-maximal inhibition (IC50) is 20 µM. `O=C(O)CSc1ccc(NC=C2C(=O)NC(=O)c3ccccc32)cc1` [Example 548, {4-[(1,3-Dioxo-2,3-dihydro-1H-isoquinolin-4-ylidenemethyl)-amino]-phenylsulfanyl}-acetic acid]: the half-maximal inhibitory concentration (IC50) stood at 35.3 µM. Consider `Cc1nnc(NS(=O)(=O)c2ccc(NC=C3C(=O)NC(=O)c4ccccc43)cc2)s1` [Example 549, 4-[(1,3-Dioxo-2,3-dihydro-1H-isoquinolin-4-ylidenemethyl)-amino]-N-(5-methyl-[1,3,4]thiadiazol-2-yl)-benzenesulfonamide], for which the IC50 is 40.2 µM. `O=C1NC(=O)c2ccccc2C1=CNc1ccccc1-c1nc2ccccc2[nH]1` [Example 551, 4-{[2-(1H-Benzoimidazol-2-yl)-phenylamino]-methylene}-4H-isoquinoline-1,3-dione]: the IC50 was 14.9 µM. Take `O=C1NC(=O)c2ccccc2C1=CNNc1cccc(C(=O)O)c1` [Example 552, 3-[N′-(1,3-Dioxo-2,3-dihydro-1H-isoquinolin-4-ylidenemethyl)-hydrazino]-benzoic acid]: the IC50 was 32.2 µM. With `Cc1nc(NS(=O)(=O)c2ccc(NC=C3C(=O)NC(=O)c4ccccc43)cc2)oc1C` [Example 553, N-(4,5-Dimethyl-oxazol-2-yl)-4-[(1,3-dioxo-2,3-dihydro-1H-isoquinolin-4-ylidenemethyl)-amino]-benzenesulfonamide], the IC50 amounted to 23.7 µM. Next, `CC(=O)N(C)c1ccc(NC=C2C(=O)NC(=O)c3ccccc32)cc1` [Example 554, N-{4-[(1,3-Dioxo-2,3-dihydro-1H-isoquinolin-4-ylidenemethyl)-amino]-phenyl}-N-methyl-acetamide]: 36 µM. With `Cc1cc(NS(=O)(=O)c2ccc(NC=C3C(=O)NC(=O)c4ccccc43)cc2)no1` [Example 556, 4-[(1,3-Dioxo-2,3-dihydro-1H-isoquinolin-4-ylidenemethyl)-amino]-N-(5-methyl-isoxazol-3-yl)-benzenesulfonamide], the half-maximal inhibitory concentration (IC50) stood at 48.4 µM.

Turning to `O=C(O)C=Cc1ccc(NC=C2C(=O)NC(=O)c3ccccc32)cc1` [Example 557, 3-{4-[(1,3-Dioxo-2,3-dihydro-1H-isoquinolin-4-ylidenemethyl)-amino]-phenyl}-acrylic acid], the IC50 amounted to 19.4 µM.

Turning to `O=C(O)CCCc1ccc(NC=C2C(=O)NC(=O)c3ccccc32)cc1` [Example 558, 4-{4-[(1,3-Dioxo-2,3-dihydro-1H-isoquinolin-4-ylidenemethyl)-amino]-phenyl}-butyric acid], the IC50 turned out to be 27.4 µM. Next, `O=C1NC(=O)c2ccccc2C1=CNc1ccc(O)cc1` [Example 559, 4-[(4-Hydroxy-phenylamino)-methylene]-4H-isoquinoline-1,3-dione]: 19.3 µM; `O=C1NC(=O)c2ccccc2C1=CNc1ccc(C(=O)O)c(O)c1` [Example 560, 4-[(1,3-Dioxo-2,3-dihydro-1H-isoquinolin-4-ylidenemethyl)-amino]-2-hydroxy-benzoic acid]: 17.3 µM; `COc1ccc(NC=C2C(=O)NC(=O)c3ccccc32)cc1O` [Example 561, 4-[(3-Hydroxy-4-methoxy-phenylamino)-methylene]-4H-isoquinoline-1,3-dione]: 45.2 µM. Regarding `O=C1NC(=O)c2ccccc2C1=CNc1ccc(O)cc1C(=O)O` [Example 562, 2-[(1,3-Dioxo-2,3-dihydro-1H-isoquinolin-4-ylidenemethyl)-amino]-5-hydroxy-benzoic acid], the IC50 was found to be 15.9 µM. In the case of `O=C1NC(=O)c2ccccc2C1=CNc1c(O)cccc1O` [Example 565, 4-[(2,6-Dihydroxy-phenylamino)-methylene]-4H-isoquinoline-1,3-dione], the 50% inhibitory concentration (IC50) is 38 µM. `O=C1NC(=O)c2ccccc2C1=CNC(Cc1ccc(O)c(O)c1)C(=O)O` (stereo not shown) [Example 566, 3-(3,4-Dihydroxy-phenyl)-2-[(1,3-dioxo-2,3-dihydro-1H-isoquinolin-4-ylidenemethyl)-amino]-propionic acid]: the half-inhibitory concentration (IC50) worked out at 29.7 µM. With `O=C1NC(=O)c2ccccc2C1=CNc1ccc(O)cc1O` [Example 568, 4-[(2,4-Dihydroxy-phenylamino)-methylene]-4H-isoquinoline-1,3-dione] the figure was 16.9 µM; with `O=C1NC(=O)c2ccccc2C1=CNc1cc(Cl)c([N+](=O)[O-])cc1O` [Example 570, 4-[(5-Chloro-2-hydroxy-4-nitro-phenylamino)-methylene]-4H-isoquinoline-1,3-dione], 22 µM. Turning to `O=C1NC(=O)c2ccccc2C1=CNc1ccc(N2CCN(CCN3CCOCC3)CC2)cc1` [Example 571, 4-({4-[4-(2-Morpholin-4-yl-ethyl)-piperazin-1-yl]-phenylamino}-methylene)-4H-isoquinoline-1,3-dione], the IC50 was 33.8 µM. As for `O=C1NC(=O)c2ccccc2C1=CNc1ccc(N2CCN(CCN3CCCC3)CC2)cc1` [Example 572, 4-({4-[4-(2-Pyrrolidin-1-yl-ethyl)-piperazin-1-yl]-phenylamino}-methylene)-4H-isoquinoline-1,3-dione], the half-maximal inhibitory concentration (IC50) was 37 µM. With `Nc1cccc(CNC=C2C(=O)NC(=O)c3ccccc32)c1` [Example 573, 4-[(3-Amino-benzylamino)-methylene]-4H-isoquinoline-1,3-dione], the concentration for half-maximal inhibition (IC50) turned out to be 30.6 µM. Regarding `NCc1cccc(CNC=C2C(=O)NC(=O)c3ccccc32)c1` [Example 578, 4-[(3-Aminomethyl-benzylamino)-methylene]-4H-isoquinoline-1,3-dione], the IC50 was determined as 23.7 µM. Regarding `O=C1NC(=O)c2ccccc2C1=CNCc1cccc(NS(=O)(=O)c2cccs2)c1` [Example 579, Thiophene-2-sulfonic acid (3-{[(1,3-dioxo-2,3-dihydro-1H-isoquinolin-4-ylidenemethyl)-amino]-methyl}-phenyl)-amide], the 50% inhibitory concentration (IC50) is 20.4 µM. Take `CC(C)S(=O)(=O)Nc1cccc(CNC=C2C(=O)NC(=O)c3ccccc32)c1` [Example 580, Propane-2-sulfonic acid (3-{[(1,3-dioxo-2,3-dihydro-1H-isoquinolin-4-ylidenemethyl)-amino]-methyl}-phenyl)-amide]: the IC50 amounted to 48.7 µM.

A word on the IC50: it is the concentration that inhibits the measured activity by half.
